{
  "source": "patent US20170275287A1",
  "about": "“NOVEL N2, N4, N7, 6-TETRASUBSTITUTED PTERIDINE-2,4,7-TRIAMINE AND 2, 4, 6, 7-TETRASUBSTITUTED PTERIDINE COMPOUNDS AND METHODS OF SYNTHESIS AND USE THEREOF” (Janus Biotherapeutics, Inc., priority 2014, published 2017)",
  "key": {"five bacterial strains": {"system": "five bacterial strains", "experiment": "Non-GLP AMES test (BioRelience)", "conditions": "five bacterial strains plus or minus S9 fraction to 5000 μg", "protocol": "A non-GLP AMES test study was performed by BioRelience Inc, MD according to Maron, D. M. and Ames, B. N., 1983, Mutation Res., 113:173-215. The test was performed in five bacterial strains plus or minus S9 fraction to 5000 μg."}, "[1]": {"experiment": "PK/PD study: whole blood JB6121 after 7 days oral dosing", "format": "in vivo, Sprague-Dawley rats", "conditions": "for AUC(0-t)/D / Cmax/D / AUC(0-t) / Cmax / Tmax / AUC / half-life: Day 7; for AUC(0-t) / Cmax / Tmax / concentration at 2 h / concentration at 3 h / concentration at 4 h / concentration at 5 h / AUC / half-life: Sprague-Dawley, rat, whole blood; for concentration at 2 h: Day 7, 2 h; for concentration at 3 h: Day 7, 3 h; for concentration at 4 h: Day 7, 4 h; for concentration at 5 h: Day 7, 5 h; for AUC: read-out: AUC Extrap; for half-life: read-out: t½ (converted)", "protocol": "The objective of this study was to collect serum following ODN CpG 1668 administration and to determine the pharmacokinetics of JB6121 following oral administration to Sprague-Dawley rats for 7 days. There was a pre-test to establish the appropriate agonist dose for a TLR9 ligand, CpG DNA ODN 1668, in rats using serum IL-12 as the monitored cytokine, groups 1-3, see table 6. Whole blood samples for serum were collected terminally from each animal 3 hours following dosing with ODN CpG 1668. Serum IL-12 was determined by ELISA, data not shown. An agonist dose of lmg/kg was selected for the next phase of the study. For groups administered JB6121 (Groups 4-7), formulations were corrected for base/salt components and not corrected for purity. On the initial day of dose administration, JB6121 formulations were prepared using sterile PBS to the adjusted target dosing concentrations using a factor of 0.8265 to correct for salt content. Dosing was performed as outlined in the following Table 9.\nAnimals were assigned to four groups (groups 4-7) and administered JB6121 at 0.39, 1.56, 6.25, or 25 mg/kg in a volume of […] once per day by oral gavage for 7 days. On Day 7, two hours following the JB6121 dose (approximate Cmax), ODN CpG 1668 was administered as a single IP dose at 1 mg/kg in a volume of 1 mL/kg. Whole blood samples for bioanalysis and serum samples for serum cytokine analysis were collected by tail vein bleeding or terminally by cardiac puncture at t=2, 3, 4 and 5 h."}, "TLR9": {"target": "T1, TLR9 (Mus musculus, UniProt Q9EQU3)", "T1 construct": "endogenous in cells", "T1 sequence (Q9EQU3 26-1032)": "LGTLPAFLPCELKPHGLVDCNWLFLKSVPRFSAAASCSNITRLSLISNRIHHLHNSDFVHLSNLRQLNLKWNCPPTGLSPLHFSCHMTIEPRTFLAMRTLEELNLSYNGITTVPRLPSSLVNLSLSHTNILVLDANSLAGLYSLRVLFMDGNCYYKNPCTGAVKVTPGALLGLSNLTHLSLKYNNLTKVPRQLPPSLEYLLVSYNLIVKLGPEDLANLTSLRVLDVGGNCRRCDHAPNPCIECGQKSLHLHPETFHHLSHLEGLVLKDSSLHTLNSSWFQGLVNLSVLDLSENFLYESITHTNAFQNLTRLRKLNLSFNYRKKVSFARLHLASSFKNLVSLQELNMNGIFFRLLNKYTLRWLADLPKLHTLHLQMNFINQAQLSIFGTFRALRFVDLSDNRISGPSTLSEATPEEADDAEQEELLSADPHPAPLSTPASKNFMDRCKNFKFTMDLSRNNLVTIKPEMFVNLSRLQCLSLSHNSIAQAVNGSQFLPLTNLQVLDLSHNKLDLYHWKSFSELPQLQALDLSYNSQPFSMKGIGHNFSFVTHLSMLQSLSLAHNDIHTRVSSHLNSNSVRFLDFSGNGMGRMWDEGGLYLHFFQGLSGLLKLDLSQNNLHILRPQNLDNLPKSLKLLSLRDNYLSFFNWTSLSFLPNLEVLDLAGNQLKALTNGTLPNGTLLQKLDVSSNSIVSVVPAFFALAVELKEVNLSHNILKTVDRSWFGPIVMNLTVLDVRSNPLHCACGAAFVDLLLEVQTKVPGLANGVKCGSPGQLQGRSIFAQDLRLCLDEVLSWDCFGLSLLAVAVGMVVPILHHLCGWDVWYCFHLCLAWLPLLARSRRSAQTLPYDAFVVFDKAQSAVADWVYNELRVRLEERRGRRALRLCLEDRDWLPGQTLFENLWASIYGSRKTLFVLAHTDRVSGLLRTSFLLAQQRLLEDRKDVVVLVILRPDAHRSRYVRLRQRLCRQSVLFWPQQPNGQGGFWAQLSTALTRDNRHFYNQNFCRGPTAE", "experiment": "In vivo TLR9 knockdown (CpG-DNA challenge, serum cytokines)", "set-up": "species or system mice", "protocol": "Mice were treated with test antagonist at varying doses at T=0 hr. Agonist treatment (CpG-DNA) dosed one hour later, T=1 hr for IP groups and two hours later, T=2 hr for PO groups. Necropsy performed 3 hours post agonist treatment, T=4 hr (IP groups) or T=5 hr (PO groups). Serum cytokines induced by the TLR agonist are measured by ELISA. Groups size per dose, n=3. The mean+/−SD of two independent ELISA's at differing serum dilutions is plotted."}},
  "note": "Where two headings read alike, the source gives them in different places.",
  "data": [
    {"compound": "CN1CCN(c2nc(NCCN3CCOCC3)c3nc(Cl)c(NCCN4CCOCC4)nc3n2)CC1", "note": "[JB6121, 6-chloro-2-(4-methylpiperazin-1-yl)-N^4,N^7-bis(2-morpholinoethyl)pteridine-4,7-diamine]", "values": [
      {"measurement": "AMES test", "setting": "five bacterial strains", "value": "no toxicity"},
      {"measurement": "AUC(0-t)/D", "setting": "[1]; 0.39 mg/kg PO daily x7 days", "value": 24.8, "unit": "ng · h/mL/mg/kg/day"},
      {"measurement": "Cmax/D", "setting": "[1]; 0.39 mg/kg PO daily x7 days", "value": 13.4, "unit": "ng/mL/mg/kg/day"},
      {"measurement": "AUC(0-t)/D", "setting": "[1]; 1.56 mg/kg PO daily x7 days", "value": 13.6, "unit": "ng · h/mL/mg/kg/day"},
      {"measurement": "Cmax/D", "setting": "[1]; 1.56 mg/kg PO daily x7 days", "value": 6.96, "unit": "ng/mL/mg/kg/day"},
      {"measurement": "AUC(0-t)/D", "setting": "[1]; 6.25 mg/kg PO daily x7 days", "value": 34.8, "unit": "ng · h/mL/mg/kg/day"},
      {"measurement": "Cmax/D", "setting": "[1]; 6.25 mg/kg PO daily x7 days", "value": 15.2, "unit": "ng/mL/mg/kg/day"},
      {"measurement": "AUC(0-t)/D", "setting": "[1]; 25 mg/kg PO daily x7 days", "value": 63, "unit": "ng · h/mL/mg/kg/day"},
      {"measurement": "Cmax/D", "setting": "[1]; 25 mg/kg PO daily x7 days", "value": 28.4, "unit": "ng/mL/mg/kg/day"},
      {"measurement": "AUC(0-t)", "setting": "[1]; 0.39 mg/kg PO daily x7 days", "value": 9.68, "unit": "ng·h/mL"},
      {"measurement": "Cmax", "setting": "[1]; 0.39 mg/kg PO daily x7 days", "value": 5.24, "unit": "ng/mL"},
      {"measurement": "Tmax", "setting": "[1]; 0.39 mg/kg PO daily x7 days", "value": 3.8, "unit": "h"},
      {"measurement": "concentration at 2 h", "setting": "[1]; 0.39 mg/kg PO daily x7 days", "value": 2.5, "unit": "ng/mL"},
      {"measurement": "concentration at 3 h", "setting": "[1]; 0.39 mg/kg PO daily x7 days", "value": 3.88, "unit": "ng/mL"},
      {"measurement": "concentration at 4 h", "setting": "[1]; 0.39 mg/kg PO daily x7 days", "value": 5.57, "unit": "ng/mL"},
      {"measurement": "concentration at 5 h", "setting": "[1]; 0.39 mg/kg PO daily x7 days", "value": 6.47, "unit": "ng/mL"},
      {"measurement": "AUC", "setting": "[1]; 0.39 mg/kg PO daily x7 days", "value": 133, "unit": "ng·h/mL"},
      {"measurement": "half-life", "setting": "[1]; 0.39 mg/kg PO daily x7 days", "value": 8.75, "unit": "h"},
      {"measurement": "AUC(0-t)", "setting": "[1]; 1.56 mg/kg PO daily x7 days", "value": 21.3, "unit": "ng·h/mL"},
      {"measurement": "Cmax", "setting": "[1]; 1.56 mg/kg PO daily x7 days", "value": 10.9, "unit": "ng/mL"},
      {"measurement": "Tmax", "setting": "[1]; 1.56 mg/kg PO daily x7 days", "value": 4, "unit": "h"},
      {"measurement": "concentration at 2 h", "setting": "[1]; 1.56 mg/kg PO daily x7 days", "value": 3.93, "unit": "ng/mL"},
      {"measurement": "concentration at 3 h", "setting": "[1]; 1.56 mg/kg PO daily x7 days", "value": 8.2, "unit": "ng/mL"},
      {"measurement": "concentration at 4 h", "setting": "[1]; 1.56 mg/kg PO daily x7 days", "value": 7.8, "unit": "ng/mL"},
      {"measurement": "concentration at 5 h", "setting": "[1]; 1.56 mg/kg PO daily x7 days", "value": 7.76, "unit": "ng/mL"},
      {"measurement": "AUC", "setting": "[1]; 1.56 mg/kg PO daily x7 days", "value": 231, "unit": "ng·h/mL"},
      {"measurement": "half-life", "setting": "[1]; 1.56 mg/kg PO daily x7 days", "value": 21.2, "unit": "h"},
      {"measurement": "AUC(0-t)", "setting": "[1]; 6.25 mg/kg PO daily x7 days", "value": 217, "unit": "ng·h/mL"},
      {"measurement": "Cmax", "setting": "[1]; 6.25 mg/kg PO daily x7 days", "value": 95, "unit": "ng/mL"},
      {"measurement": "Tmax", "setting": "[1]; 6.25 mg/kg PO daily x7 days", "value": 3.2, "unit": "h"},
      {"measurement": "concentration at 2 h", "setting": "[1]; 6.25 mg/kg PO daily x7 days", "value": 27, "unit": "ng/mL"},
      {"measurement": "concentration at 3 h", "setting": "[1]; 6.25 mg/kg PO daily x7 days", "value": 94.8, "unit": "ng/mL"},
      {"measurement": "concentration at 4 h", "setting": "[1]; 6.25 mg/kg PO daily x7 days", "value": 77.8, "unit": "ng/mL"},
      {"measurement": "concentration at 5 h", "setting": "[1]; 6.25 mg/kg PO daily x7 days", "value": 63.8, "unit": "ng/mL"},
      {"measurement": "AUC", "setting": "[1]; 6.25 mg/kg PO daily x7 days", "value": 609, "unit": "ng·h/mL"},
      {"measurement": "half-life", "setting": "[1]; 6.25 mg/kg PO daily x7 days", "value": 4.09, "unit": "h"},
      {"measurement": "AUC(0-t)", "setting": "[1]; 25 mg/kg PO daily x7 days", "value": 1570, "unit": "ng·h/mL"},
      {"measurement": "Cmax", "setting": "[1]; 25 mg/kg PO daily x7 days", "value": 711, "unit": "ng/mL"},
      {"measurement": "Tmax", "setting": "[1]; 25 mg/kg PO daily x7 days", "value": 3, "unit": "h"},
      {"measurement": "concentration at 2 h", "setting": "[1]; 25 mg/kg PO daily x7 days", "value": 401, "unit": "ng/mL"},
      {"measurement": "concentration at 3 h", "setting": "[1]; 25 mg/kg PO daily x7 days", "value": 711, "unit": "ng/mL"},
      {"measurement": "concentration at 4 h", "setting": "[1]; 25 mg/kg PO daily x7 days", "value": 487, "unit": "ng/mL"},
      {"measurement": "concentration at 5 h", "setting": "[1]; 25 mg/kg PO daily x7 days", "value": 366, "unit": "ng/mL"},
      {"measurement": "AUC", "setting": "[1]; 25 mg/kg PO daily x7 days", "value": 2770, "unit": "ng·h/mL"},
      {"measurement": "half-life", "setting": "[1]; 25 mg/kg PO daily x7 days", "value": 2.2, "unit": "h"},
      {"measurement": "ID50, TLR9 knockdown, IP injection", "setting": "TLR9; mice, IP, CpG-DNA 1 h later", "value": 55.27, "unit": "μg injection dose"},
      {"measurement": "ID50, TLR9 knockdown, PO gavage", "setting": "TLR9; mice, PO, CpG-DNA 2 h later", "value": 59.99, "unit": "μg delivery dose"},
      {"measurement": "ED50", "setting": "TLR9; mouse, translated for a 25 gram mouse, read-out: ID50, TLR9 knockdown", "value": "~2.4", "unit": "mg/kg"}
    ]}
  ]
}
